According to PMC11005723, “Development of Complementary Photo‐arginine/lysine to Promote Discovery of Arg/Lys hPTMs Interactomes” (Advanced Science, 2024):
Non-standard residues stand in square brackets, D forms with d. No end group written: not given here. *: point of attachment. Biotin = O=C1N[C@H]2[C@H](CS[C@H]2CCCCC(=O)*)N1; R(dz) = photo-arginine

System: HEK293T nuclear lysates
Experiment: SILAC‐based pull‐down proteomics H4K5me1/H4K5 (probes 6/5)
Type: binding, human
Conditions: for B6 log2 (H4K5me/H4K5): run B6; for C6 log (H4K5me/H4K5): run C6

## probe 6: H4K5me peptide probe with photo‐arginine R(dz) and K(biotin) (SG[R(dz)]GK(Me)GGKGLGKGGK(Biotin))
10 µµ probe, 365 nm UV 30 min, streptavidin enrichment, n = 2
  proteins recruited (SILAC proteomics H4K5me1/H4K5): could recruit L3MBTL2
Protein A0A0B4J1Z1 SRSF7
  B6 log2 (H4K5me/H4K5): 0.2308
  C6 log (H4K5me/H4K5): 0.1007
Protein A0A0C4DG89 DDX46
  B6 log2 (H4K5me/H4K5): 0.248
  C6 log (H4K5me/H4K5): 0.4939
Protein A0A0C4DG98 THOC2
  B6 log2 (H4K5me/H4K5): 0.2302
  C6 log (H4K5me/H4K5): -0.4085
Protein A0A2R8Y5G6 DDX3X
  B6 log2 (H4K5me/H4K5): 0.1671
  C6 log (H4K5me/H4K5): 0.08362
Protein A0A2R8Y855 SMARCE1
  B6 log2 (H4K5me/H4K5): 0.1691
  C6 log (H4K5me/H4K5): 0.1589
Protein A0A087WWS1 THOC1
  B6 log2 (H4K5me/H4K5): 0.1897
  C6 log (H4K5me/H4K5): 0.01015
Protein A0A087X2G1 DDX1
  B6 log2 (H4K5me/H4K5): 0.2376
  C6 log (H4K5me/H4K5): 0.1483
Protein B1AK87 CAPZB
  B6 log2 (H4K5me/H4K5): 0.2362
  C6 log (H4K5me/H4K5): 0.1912
Protein C9JFR7 CYCS
  B6 log2 (H4K5me/H4K5): 0.1664
  C6 log (H4K5me/H4K5): 0.2306
Protein E5RJR5 SKP1
  B6 log2 (H4K5me/H4K5): 0.2613
  C6 log (H4K5me/H4K5): 0.4362
Protein E9PCY7 HNRNPH1
  B6 log2 (H4K5me/H4K5): 0.1643
  C6 log (H4K5me/H4K5): -0.04567
Protein E9PHA2 NCAPH
  B6 log2 (H4K5me/H4K5): 0.2207
  C6 log (H4K5me/H4K5): -0.3454
Protein F5GYN4 OTUB1
  B6 log2 (H4K5me/H4K5): 0.1534
  C6 log (H4K5me/H4K5): -0.02948
Protein F5H8F7 ASH2L
  B6 log2 (H4K5me/H4K5): 0.1889
  C6 log (H4K5me/H4K5): 0.02508
Protein F8VRQ1 HNRNPA1
  B6 log2 (H4K5me/H4K5): 0.2132
  C6 log (H4K5me/H4K5): 0.1279
Protein G3V4C1 HNRNPC
  B6 log2 (H4K5me/H4K5): 0.1754
  C6 log (H4K5me/H4K5): 0.1012
Protein G3V529 DDX24
  B6 log2 (H4K5me/H4K5): 0.1507
  C6 log (H4K5me/H4K5): -0.9684
Protein J3KTA4 DDX5
  B6 log2 (H4K5me/H4K5): 0.1484
  C6 log (H4K5me/H4K5): 0.164
Protein M0R3H0 RPS16
  B6 log2 (H4K5me/H4K5): 0.2369
  C6 log (H4K5me/H4K5): -0.3242
Protein O00567 NOP56
  B6 log2 (H4K5me/H4K5): 0.2329
  C6 log (H4K5me/H4K5): 0.2086
Protein O14980 XPO1
  B6 log2 (H4K5me/H4K5): 0.2117
  C6 log (H4K5me/H4K5): -0.03544
Protein O15042 U2SURP
  B6 log2 (H4K5me/H4K5): 0.1992
  C6 log (H4K5me/H4K5): 0.3265
Protein O43143 DHX15
  B6 log2 (H4K5me/H4K5): 0.2048
  C6 log (H4K5me/H4K5): 0.2816
Protein O43290 SART1
  B6 log2 (H4K5me/H4K5): 0.229
  C6 log (H4K5me/H4K5): 0.0852
Protein O43395 PRPF3
  B6 log2 (H4K5me/H4K5): 1.011
  C6 log (H4K5me/H4K5): 1.011
Protein O43491 EPB41L2
  B6 log2 (H4K5me/H4K5): 0.1873
  C6 log (H4K5me/H4K5): 0.1809
Protein O43719 HTATSF1
  B6 log2 (H4K5me/H4K5): 0.2156
  C6 log (H4K5me/H4K5): 0.1171
Protein O43929 ORC4
  B6 log2 (H4K5me/H4K5): 0.2071
  C6 log (H4K5me/H4K5): 0.2724
Protein O60216 RAD21
  B6 log2 (H4K5me/H4K5): 0.1881
  C6 log (H4K5me/H4K5): 0.2602
Protein O60934 NBN
  B6 log2 (H4K5me/H4K5): 0.1747
  C6 log (H4K5me/H4K5): 0.1942
Protein O75525 KHDRBS3
  B6 log2 (H4K5me/H4K5): 0.1909
  C6 log (H4K5me/H4K5): 0.05512
Protein O95202 LETM1
  B6 log2 (H4K5me/H4K5): 0.2397
  C6 log (H4K5me/H4K5): 0.3564
Protein O95218 ZRANB2
  B6 log2 (H4K5me/H4K5): 0.1711
  C6 log (H4K5me/H4K5): 0.2764
Protein O95456 PSMG1
  B6 log2 (H4K5me/H4K5): 0.8105
  C6 log (H4K5me/H4K5): 0.8105
Protein O95983 MBD3
  B6 log2 (H4K5me/H4K5): 0.1485
  C6 log (H4K5me/H4K5): 0.1715
Protein P06748 NPM1
  B6 log2 (H4K5me/H4K5): 0.1928
  C6 log (H4K5me/H4K5): 0.1848
Protein P07900 HSP90AA1
  B6 log2 (H4K5me/H4K5): 0.1623
  C6 log (H4K5me/H4K5): 0.0357
Protein P09661 SNRPA1
  B6 log2 (H4K5me/H4K5): 0.1608
  C6 log (H4K5me/H4K5): 0.0265
Protein P11142 HSPA8
  B6 log2 (H4K5me/H4K5): 0.1602
  C6 log (H4K5me/H4K5): 0.128
Protein P11388 TOP2A
  B6 log2 (H4K5me/H4K5): 0.1715
  C6 log (H4K5me/H4K5): -0.2242
Protein P12004 PCNA
  B6 log2 (H4K5me/H4K5): 0.186
  C6 log (H4K5me/H4K5): 0.08942
Protein P19338 NCL
  B6 log2 (H4K5me/H4K5): 0.2437
  C6 log (H4K5me/H4K5): 0.2101
Protein P22061 PCMT1
  B6 log2 (H4K5me/H4K5): 0.8673
  C6 log (H4K5me/H4K5): 0.8673
Protein P22087 FBL
  B6 log2 (H4K5me/H4K5): 0.1734
  C6 log (H4K5me/H4K5): 0.2534
Protein P22102 GART
  B6 log2 (H4K5me/H4K5): 0.1557
  C6 log (H4K5me/H4K5): -0.03854
Protein P25398 RPS12
  B6 log2 (H4K5me/H4K5): 0.2482
  C6 log (H4K5me/H4K5): 0.204
Protein P29692 EEF1D
  B6 log2 (H4K5me/H4K5): 0.1672
  C6 log (H4K5me/H4K5): -0.1339
Protein P31153 MAT2A
  B6 log2 (H4K5me/H4K5): 0.1703
  C6 log (H4K5me/H4K5): 0.05667
Protein P42166 TMPO
  B6 log2 (H4K5me/H4K5): 0.2154
  C6 log (H4K5me/H4K5): 0.1594
Protein P46109 CRKL
  B6 log2 (H4K5me/H4K5): 0.2247
